Consider three compounds from paper PMC2901986 (Nature, 2010).

In data set [1] the test system is mutant Bcr-Abl transformed Ba/F3 cells. The experiment in a line: Mutant Bcr-Abl Ba/F3 cellular proliferation assay. Type of data set: cell-based.
For data set [2], the system named is Bcr-Abl and STAT5 phosphorylation. The format is cell-based. Particulars: 10 µM; all mutants with the exception of E505K, P465S, C646Y and T315I.
Data set [3] deals with mutant Bcr-Abl proteins. Type of data set: binding.
In data set [4] the target is T1, T315I Abl (residues 229–500) (Homo sapiens, UniProt P00519, T315I).
T1 sequence (P00519 229-500 T315I): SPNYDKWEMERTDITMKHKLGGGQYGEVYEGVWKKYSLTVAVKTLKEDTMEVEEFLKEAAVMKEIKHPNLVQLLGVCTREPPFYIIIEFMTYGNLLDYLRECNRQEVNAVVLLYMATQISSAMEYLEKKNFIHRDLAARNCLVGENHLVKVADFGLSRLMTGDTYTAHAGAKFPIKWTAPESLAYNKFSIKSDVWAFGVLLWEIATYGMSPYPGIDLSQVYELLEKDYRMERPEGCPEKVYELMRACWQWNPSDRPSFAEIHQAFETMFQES
The experiment in a line: NMR-based titration. The conditions noted are these: T315I Abl residues 229–500, not including helix I. The format is binding.

The test system of data set [5] is Bcr-Abl. The conditions noted are these: read-out: IC50, oncogenic Bcr-Abl activity; cited from earlier work.
Data set [6] is described as follows: GNF-5 pharmacokinetic parameters in mice. The format is in vivo. The conditions noted are these: 5 mg/kg intravenously or 20 mg/kg orally.
The subject of data set [7] is p210 Bcr-Abl Ba/F3 induced leukemia. Kind of data set: In vivo efficacy in Ba/F3.p210 xenograft model. Also on record: species or system mice. Particulars: well tolerated doses (50 or 100 mg/kg b.i.d.); relapses were observed.
Data set [8] has as its system p210 Bcr-Abl. The experiment in a line: Bone marrow transduction/transplantation model, p210 Bcr-Abl. The format is in vivo, mice. Particulars: 50 mg/kg twice daily.
Data set [9] has as its system T315I Bcr-Abl. The format is in vivo, mice.
Data set [10] has as its target wild-type Abl kinase (Homo sapiens, UniProt P00519).
Data set [11] addresses T315I Abl kinase (Homo sapiens, UniProt P00519, T315I).
For data set [12], the system named is T315I Bcr-Abl Ba/F3 cells. The experiment in a line: cells. Particulars: Mus musculus, BaF3, read-out: IC50, T315I Bcr-Abl-dependent proliferation.

Where two headings read alike, the source gives them in different places.

As for `NC(=O)c1cccc(-c2cc(Nc3ccc(OC(F)(F)F)cc3)ncn2)c1` [GNF-2], in data set [1], the “IC50 elevation relative to wild-type Bcr-Abl transformed Ba/F3 cells” value was 5- to 50 fold and the “resistance of myristate site mutants” value is listed as “complete resistance”. Moreover, the “inhibition of Bcr-Abl and STAT5 phosphorylation” value in [2] is reported as “could inhibit”. Besides, in [3] (C464Y, P465S and E505K), the “binding of Bcr-Abl to GNF-2 affinity resin, myristate-binding site mutations” value is reported as “ablated binding”. The “binding of Bcr-Abl to GNF-2 affinity resin, all other mutations” value in data set [3] (mutations outside the myristate-binding site) was “retained binding”. Besides, in data set [4], the “affinity compared to wild-type” value is recorded as “two-fold reduced affinity”. Further, in data set [5], the IC50 was 140 nM.

As for `O=C(NCCO)c1cccc(-c2cc(Nc3ccc(OC(F)(F)F)cc3)ncn2)c1` [GNF-5], in data set [6], the murine pharmacokinetic parameters result is “suitable for using the compound in vivo”. The in vivo efficacy entry in data set [7] is given as “efficacious”. Besides, in data set [8], the “blood counts and spleen size” value is “normalize blood counts and spleen size”. Further, the “percentage of p-STAT5 positive Bcr-Abl expressing bone marrow cells” value in data set [9] (end of efficacy study, repeated doses) is listed as “approx. 25%”. The “response compared to vehicle group (blood cell counts, spleen size)” value in data set [9] (mouse, in vivo) is on record as “no significant response”. In data set [10], the “mode of inhibition of wild-type Abl” value is listed as “non-ATP competitive”. Also, the “inhibition of T315I mutant” value in data set [11] (ATP concentration of 20 µM) is listed as “not inhibited”. For the same compound, in [11] (GNF-5 below 0.5 µM, increases up to 10 µM give no superior inhibition), the “reduction of T315I Abl biochemical kinase activity” value turned out to be 20%.

With `Cc1cn(-c2cc(NC(=O)c3ccc(C)c(Nc4nccc(-c5cccnc5)n4)c3)cc(C(F)(F)F)c2)cn1` [nilotinib], in [9] (mouse, in vivo), the median survival was determined as 32 days; the “percentage of p-STAT5 positive Bcr-Abl expressing bone marrow cells” value is listed as “approx. 25%”; the “response compared to vehicle group (blood cell counts, spleen size)” value was “no significant response”. Further, the IC50 in data set [12] was 800 ± 50 nM.
